Source: patent US12655116B2, “Substituted isophthalic acid diamides” (Bayer Aktiengesellschaft, priority 2020, dated 2026)

Experiments:
ABUTH [1] = test: Pre-emergence herbicidal action against ABUTH; format: in vivo, Abutilon theophrasti; conditions: Abutilon theophrasti, 504 h; for pest or weed control at 80 g/ha: scored visually after 3 weeks vs untreated controls (100% = plants have died, 0% = like control plants); for pest or weed control at 20 g/ha: dosage 20 g/ha, scored visually after 3 weeks vs untreated controls, 100% = plants have died, 0% = like control plants, read-out: Pre-emergence action against ABUTH (herbicidal activity in percent)
How it was run: (§1)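 Herbicidal effect was assessed 3 weeks after treatment by visual comparison with untreated controls, 100% denoting dead plants. Aqueous WP or EC preparations had been applied at 600 to 800 l/ha with 0.2% wetting agent to the soil covering freshly sown seeds.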

ALOMY [2] = test: Pre-emergence herbicidal action against ALOMY; format: in vivo, Alopecurus myosuroides; conditions: Alopecurus myosuroides, 504 h, pre-emergence; for pest or weed control at 80 g/ha: scored visually after 3 weeks vs untreated controls (100% = plants have died, 0% = like control plants)
How it was run: as §1

AMARE [3] = test: Pre-emergence herbicidal action against AMARE; format: in vivo, Amaranthus retroflexus; conditions: Amaranthus retroflexus, 504 h, scored visually after 3 weeks vs untreated controls, 100% = plants have died, 0% = like control plants
How it was run: as §1

AVEFA [4] = test: Pre-emergence herbicidal action against AVEFA; format: in vivo, Avena fatua; conditions: Avena fatua, 504 h, pre-emergence
How it was run: as §1

ECHCG [5] = test: Pre-emergence herbicidal action against ECHCG; format: in vivo, Echinochloa crus-galli; conditions: Echinochloa crus-galli, 504 h, 80 g/ha
How it was run: as §1

LOLRI [6] = test: Pre-emergence herbicidal action against LOLRI; format: in vivo, Lolium rigidum; conditions: Lolium rigidum, 504 h, 80 g/ha
How it was run: as §1

MATIN [7] = test: Pre-emergence herbicidal action against MATIN; format: in vivo, Matricaria inodora; conditions: Tripleurospermum inodorum, 504 h; for pest or weed control at 20 g/ha: dosage 20 g/ha; for pest or weed control at 80 g/ha: dosage 80 g/ha
How it was run: as §1

PHBPU [8] = test: Pre-emergence herbicidal action against PHBPU; format: in vivo, Pharbitis purpurea; conditions: Ipomoea purpurea, 504 h, dosage 80 g/ha
How it was run: as §1

POLCO = test: Pre-emergence herbicidal action against POLCO; format: in vivo, Polygonum convolvulus; conditions: Fallopia convolvulus, 504 h, dosage 80 g/ha
How it was run: as §1

SETVI [9] = test: Pre-emergence herbicidal action against SETVI; format: in vivo, Setaria viridis; conditions: Setaria viridis, 504 h; for pest or weed control at 20 g/ha: dosage 20 g/ha; for pest or weed control at 80 g/ha: dosage 80 g/ha
How it was run: as §1

VERPE [10] = test: Pre-emergence herbicidal action against VERPE; format: in vivo, Veronica persica; conditions: Veronica persica, 504 h; for pest or weed control at 20 g/ha: dosage 20 g/ha; for pest or weed control at 80 g/ha: dosage 80 g/ha
How it was run: as §1

VIOTR [11] = test: Pre-emergence herbicidal action against VIOTR; format: in vivo, Viola tricolor; conditions: Viola tricolor, 504 h; for pest or weed control at 80 g/ha: dosage 80 g/ha
How it was run: as §1

DIGSA [12] = test: Pre-emergence herbicidal action against DIGSA; format: in vivo, Digitaria sanguinalis; conditions: Digitaria sanguinalis, 504 h; for pest or weed control at 20 g/ha: dosage 20 g/ha; for pest or weed control at 80 g/ha: dosage 80 g/ha
How it was run: as §1

ABUTH [13] = test: Post-emergence herbicidal action against ABUTH; format: in vivo, Abutilon theophrasti; conditions: Abutilon theophrasti, 504 h, visual assessment about 3 weeks after treatment vs untreated controls; for pest or weed control at 5 g/ha: dosage 5 g/ha; for pest or weed control at 20 g/ha: dosage 20 g/ha
How it was run: (§2)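 Herbicidal effect was scored visually in percent after about 3 weeks in the greenhouse. Plants had been raised in sandy loam and treated post-emergence at the one-leaf stage with formulated compound at 600 to 800 l/ha water plus 0.2% wetting agent.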

ALOMY [14] = test: Post-emergence herbicidal action against ALOMY; format: in vivo, Alopecurus myosuroides; conditions: Alopecurus myosuroides, 504 h, visual assessment about 3 weeks after treatment vs untreated controls; for pest or weed control at 20 g/ha: dosage 20 g/ha
How it was run: as §2

AMARE [15] = test: Post-emergence herbicidal action against AMARE; format: in vivo, Amaranthus retroflexus; conditions: Amaranthus retroflexus, 504 h, 20 g/ha, visual assessment about 3 weeks after treatment, 100% = plants have died, 0% = like control plants
How it was run: as §2

AVEFA [16] = test: Post-emergence herbicidal action against AVEFA; format: in vivo, Avena fatua; conditions: Avena fatua, 504 h, visual assessment about 3 weeks after treatment, 100% = plants have died, 0% = like control plants
How it was run: as §2

ECHCG [17] = test: Post-emergence herbicidal action against ECHCG; format: in vivo, Echinochloa crus-galli; conditions: Echinochloa crus-galli, 504 h; for pest or weed control at 20 g/ha: dosage 20 g/ha
How it was run: as §2

LOLRI [18] = test: Post-emergence herbicidal action against LOLRI; format: in vivo, Lolium rigidum; conditions: Lolium rigidum, 504 h, dosage 20 g/ha
Method: Seeds of monocotyledonous and dicotyledonous weed and crop plants are laid out in sandy loam soil in wood-fiber pots, covered with soil and cultivated in a greenhouse under good growth conditions. 2 to 3 weeks after sowing, the test plants are treated at the one-leaf stage. The compounds of the invention, formulated in the form of wettable powders (WP) or as emulsion concentrates (EC), are then sprayed onto the green parts of the plants in the form of an aqueous suspension or emulsion at a water application rate equivalent to 600 to 800 l/ha, with addition of 0.2% wetting agent. After the test plants have been left to stand in the greenhouse under optimal growth conditions for about 3 weeks, the action of the preparations is assessed visually in comparison to untreated controls (herbicidal action in percent (%): 100% activity=the plants have died, 0% activity=like control plants). […] The tables below illustrate, in an illustrative manner, the post-emergence herbicidal action of the compounds of the invention, the herbicidal activity being stated in percent.

MATIN [19] = test: Post-emergence herbicidal action against MATIN; format: in vivo, Matricaria inodora; conditions: Tripleurospermum inodorum, 504 h
How it was run: as §2

PHBPU [20] = test: Post-emergence herbicidal action against PHBPU; format: in vivo, Pharbitis purpurea; conditions: Ipomoea purpurea, 504 h; for pest or weed control at 20 g/ha: dosage 20 g/ha
How it was run: as §2

SETVI [21] = test: Post-emergence herbicidal action against SETVI; format: in vivo, Setaria viridis; conditions: Setaria viridis, 504 h; for pest or weed control at 5 g/ha: dosage 5 g/ha; for pest or weed control at 20 g/ha: dosage 20 g/ha
How it was run: as §2

VERPE [22] = test: Post-emergence herbicidal action against VERPE; format: in vivo, Veronica persica; conditions: Veronica persica, 504 h
How it was run: as §2

DIGSA [23] = test: Post-emergence herbicidal action against DIGSA; format: in vivo, Digitaria sanguinalis; conditions: Digitaria sanguinalis, 504 h, 20 g/ha
How it was run: as §2

HORMU = test: Pre-emergence herbicidal action against HORMU; format: in vivo, Hordeum murinum; conditions: Hordeum murinum, 504 h; 80 g/ha, pre-emergence
How it was run: as §1

STEME [24] = test: Pre-emergence herbicidal action against STEME; format: in vivo, Stellaria media; conditions: Stellaria media, 504 h, dosage 80 g/ha
How it was run: as §1

STEME [25] = test: Post-emergence herbicidal action against STEME; format: in vivo, Stellaria media; conditions: Stellaria media, 504 h, 20 g/ha
How it was run: as §2

VIOTR [26] = test: Post-emergence herbicidal action against VIOTR; format: in vivo, Viola tricolor; conditions: Viola tricolor, 504 h
How it was run: as §2

[27] = 20 g/ha, scored visually after 3 weeks, 100% = plants have died, 0% = like control plants

Work on `CCCNC(=O)c1c(C(F)(F)F)ccc(C(=O)Nc2nnnn2CC)c1C` [Example 2-32] yielded a pest or weed control at 80 g/ha (ABUTH [1]) of 100%, a pest or weed control at 20 g/ha (ABUTH [1]) of 100% and a pest or weed control at 80 g/ha (ALOMY [2]) of 100%. For the same molecule, the pest or weed control at 20 g/ha (ALOMY [2]; [27]) was 90%, the pest or weed control at 20 g/ha (AMARE [3]) was 100% and the pest or weed control at 80 g/ha (AMARE [3]) was 100%. For the same molecule, the pest or weed control at 80 g/ha (AVEFA [4]) was 90%, the pest or weed control at 20 g/ha (AVEFA [4]; [27]) was 90% and the pest or weed control at 80 g/ha (ECHCG [5]) was 100%. For the same molecule, the pest or weed control at 80 g/ha (LOLRI [6]) was 90%, the pest or weed control at 20 g/ha (MATIN [7]) was 100% and the pest or weed control at 80 g/ha (MATIN [7]) was 100%. It also gave a pest or weed control at 80 g/ha (PHBPU [8]) of 90%, a pest or weed control at 80 g/ha (POLCO) of 90% and a pest or weed control at 20 g/ha (SETVI [9]) of 100%. For the same molecule, the pest or weed control at 80 g/ha (SETVI [9]) was 100%, the pest or weed control at 20 g/ha (VERPE [10]) was 90% and the pest or weed control at 80 g/ha (VERPE [10]) was 100%. It also gave a pest or weed control at 20 g/ha (VIOTR [11]; dosage 20 g/ha) of 100%, a pest or weed control at 80 g/ha (VIOTR [11]) of 100% and a pest or weed control at 20 g/ha (DIGSA [12]) of 100%. It also gave a pest or weed control at 80 g/ha (DIGSA [12]) of 100%, a pest or weed control at 5 g/ha (ABUTH [13]) of 90% and a pest or weed control at 20 g/ha (ABUTH [13]) of 90%. The pest or weed control at 5 g/ha (ALOMY [14]; dosage 5 g/ha) was 90%, the pest or weed control at 20 g/ha (ALOMY [14]) was 100% and the pest or weed control at 20 g/ha (AMARE [15]) was 100%. For the same molecule, the pest or weed control at 5 g/ha (AVEFA [16]; 5 g/ha) was 90%, the pest or weed control at 20 g/ha (AVEFA [16]; 20 g/ha) was 100% and the pest or weed control at 5 g/ha (ECHCG [17]; dosage 5 g/ha) was 80%. The pest or weed control at 20 g/ha (ECHCG [17]) was 90%, the pest or weed control at 20 g/ha (LOLRI [18]) was 80% and the pest or weed control at 5 g/ha (MATIN [19]; dosage 5 g/ha) was 90%. It also gave a pest or weed control at 20 g/ha (MATIN [19]; dosage 20 g/ha) of 90%, a pest or weed control at 5 g/ha (PHBPU [20]; dosage 5 g/ha) of 80% and a pest or weed control at 20 g/ha (PHBPU [20]) of 90%. The pest or weed control at 5 g/ha (SETVI [21]) was 80%, the pest or weed control at 20 g/ha (SETVI [21]) was 100% and the pest or weed control at 5 g/ha (VERPE [22]; 5 g/ha) was 90%. For the same molecule, the pest or weed control at 20 g/ha (VERPE [22]) was 90% and the pest or weed control at 20 g/ha (DIGSA [23]) was 90%.

For `Cn1nnnc1NC(=O)c1ccc(C(F)(F)F)c(C(=O)NC2CC2)c1Br` [Example 1-209], the pest or weed control at 80 g/ha (ABUTH [1]) was 100%, the pest or weed control at 20 g/ha (ABUTH [1]) was 100% and the pest or weed control at 80 g/ha (ALOMY [2]) was 80%. For the same molecule, the pest or weed control at 20 g/ha (AMARE [3]) was 100%, the pest or weed control at 80 g/ha (AMARE [3]) was 100% and the pest or weed control at 80 g/ha (AVEFA [4]) was 100%. For the same molecule, the pest or weed control at 80 g/ha (ECHCG [5]) was 90%, the pest or weed control at 80 g/ha (HORMU) was 80% and the pest or weed control at 20 g/ha (MATIN [7]) was 80%. The pest or weed control at 80 g/ha (MATIN [7]) was 100%, the pest or weed control at 80 g/ha (PHBPU [8]) was 80% and the pest or weed control at 20 g/ha (SETVI [9]) was 90%. For the same molecule, the pest or weed control at 80 g/ha (SETVI [9]) was 100%, the pest or weed control at 80 g/ha (STEME [24]) was 90% and the pest or weed control at 20 g/ha (VERPE [10]) was 90%. It also gave a pest or weed control at 80 g/ha (VERPE [10]) of 100%, a pest or weed control at 80 g/ha (VIOTR [11]) of 100% and a pest or weed control at 20 g/ha (DIGSA [12]) of 100%. It also gave a pest or weed control at 80 g/ha (DIGSA [12]) of 100%, a pest or weed control at 5 g/ha (ABUTH [13]) of 90% and a pest or weed control at 20 g/ha (ABUTH [13]) of 100%. The pest or weed control at 20 g/ha (ALOMY [14]) was 80%, the pest or weed control at 20 g/ha (AMARE [15]) was 100% and the pest or weed control at 20 g/ha (ECHCG [17]) was 90%. For the same molecule, the pest or weed control at 20 g/ha (LOLRI [18]) was 80%, the pest or weed control at 20 g/ha (PHBPU [20]) was 90% and the pest or weed control at 5 g/ha (SETVI [21]) was 100%. For the same molecule, the pest or weed control at 20 g/ha (SETVI [21]) was 100%, the pest or weed control at 20 g/ha (STEME [25]) was 90% and the pest or weed control at 20 g/ha (VERPE [22]) was 80%. The pest or weed control at 5 g/ha (VIOTR [26]; 5 g/ha) was 100%, the pest or weed control at 20 g/ha (VIOTR [26]; 20 g/ha) was 100% and the pest or weed control at 20 g/ha (DIGSA [23]) was 90%.
